Like-named read-outs stand apart in the source and are kept apart here. Starred links: 1 amine or outer side, 2 acyl side, 3 side chain; linkers in the order of their positions; H or OH if unused. Non-standard residues stand in square brackets, D forms with d. Residues, ends and D or L forms follow the SMILES beside them. Groups on a side chain read outwards from the residue. *: point of attachment. C20 diacid = O=C(O)CCCCCCCCCCCCCCCCCCC(=O)*; αMePhe(2-F) = C[C@](N)(Cc1ccccc1F)C(=O)O; γGlu = O=C(O)[C@H](CCC(=O)[*:2])N[*:1]; αMeF = C[C@](N)(Cc1ccccc1)C(=O)O; αMeL = CC(C)C[C@](C)(N)C(=O)O; AEEA = NCCOCCOCC(=O)O; Ac3c = NC1(C(=O)O)CC1; Aib = CC(C)(N)C(=O)O
Key:
Human GCG R = target: T1, Human GCG R (Homo sapiens, UniProt P47871); experiment: cAMP (HTRF) activity in HEK-293 cells stably overexpressing human GCG receptor; assay type: cell-based; settings: for Human GCG R Rel. A (Relative Activity): EC50 of human GCG / EC50 of compound
T1 construct: expressed in transfected cells; host or cells: HEK-293
Procedure: (§1) By measuring the cAMP signal response levels of the aforementioned cells, the agonistic activity of individual compound towards the corresponding receptor was determined. The intracellular cAMP content was measured using reagent kit available from Cisbio Corp. based on HTRF (homogeneous time-resolved fluorescence) technology.
(§2) The cell fluid was transferred to 10 ml of HBSS for resuspension, and centrifuged at 1000 rpm for 5 minutes at room temperature.
(§3) 10 μL cell suspension was added to each well in the 384 well plate. […] Using the ECHO liquid transfer system, 100 nL of the prepared compound solution was added to the corresponding cell suspensions in the 384 well plate, rotated and shaken at 1000 rpm for 1 minute to mix evenly, and then incubated at room temperature for 60 minutes. 10 μL of detection reagent was added to each well after drug incubation was completed, and incubation was performed in the kit at room temperature for 60 minutes. […] GraphPad Prism 5 plotting software was used to create compound concentration response curves and EC50 (nM) values was calculated.

3T3-L1 adipocytes = settings: for Rel. A (Relative Activity) on 3T3-L1 adipocyte: relative to GIP
Procedure: Mouse 3T3-L1 precursor adipocytes can be induced to differentiate into mature adipocytes. […] After the cells became full and contacted with each other, DMEM differentiation medium containing 20% FBS, 0.5 mM IBMX, 0.4 ug/mL dexamethasone, and 5 ug/mL insulin was used to induce differentiation of 3T3-L1 adipocyte. After 5 days of induction and cultivation, DMEM medium containing […], 4 ug/ml insulin, and 10 uM rosiglitazone was used to continue induction and cultivation for 3 days. Then, DMEM medium containing 10% FBS was used to continue cultivation for 2-3 days to induce mature 3T3-L1 adipocytes.
The cAMP level produced by the compound on 3T3-L1 adipocytes was determined in this experiment. The tested compound solution was diluted step by step according to a concentration gradient of 3 times, to obtain a total of 10 series of concentration solutions. The solutions were added to induced mature 3T3-L1 adipocytes and incubated at room temperature for 60 minutes. 10 μL detection reagent in the kit was added to each well after drug incubation, and incubated at room temperature for another 60 minutes. […] GraphPad Prism 5 plotting software was used to create compound concentration-effect curves and calculation was performed.

Human GLP-1R = Human GLP-1R (Homo sapiens, UniProt P43220); experiment: cAMP (HTRF) activity in HEK-293 cells stably overexpressing human GLP-1 receptor; assay type: cell-based; set-up: expressed in transfected cells; host or cells: HEK-293; settings: for Human GLP-1R Rel. A (Relative Activity): EC50 of human GLP-1 (7-37) / EC50 of compound; for EC50: stable transfected cell cAMP activity, at least 3 independent tests
Procedure: as §1, §2, §3

[1] = test system: human primary liver cells; assay type: cell-based; settings: for Rel. A (Relative Activity) on human primary liver cells: relative to GCG
Procedure: The cAMP levels produced by compounds on human primary liver cells were determined in this experiment. Human primary liver cells were purchased from Lonza (cell product number HUCPG).
Frozen human primary liver cells were placed in a 37° C. constant temperature water bath for rapid thawing and recovery. The cell solution was transferred to 10 ml of HBSS for resuspension, and centrifuged at 1000 rpm for 5 minutes at room temperature.
(§4) 10 μL cell suspension was added to each well in the 384 well plate. […] Using the ECHO liquid transfer system, 100 nL of the prepared compound solution was added to the corresponding cell suspensions in the 384 well plate, rotated and shaken at 1000 rpm for 1 minute to mix evenly, and then incubated at room temperature for 60 minutes. 10 μL of detection reagent was added to each well after drug incubation was completed, and incubation was performed for 60 minutes.

Human GIP R = target: T2, Human GIP R (Homo sapiens, UniProt P48546); experiment: cAMP (HTRF) activity in CHO cells stably overexpressing GIP receptor; assay type: cell-based; settings: for Human GIP R Rel. A (Relative Activity): EC50 of human GIP / EC50 of compound; for EC50: stable transfected cell cAMP activity, at least 3 independent tests
T2 construct: expressed in transfected cells; host or cells: CHO
T2 sequence (P48546 22-466): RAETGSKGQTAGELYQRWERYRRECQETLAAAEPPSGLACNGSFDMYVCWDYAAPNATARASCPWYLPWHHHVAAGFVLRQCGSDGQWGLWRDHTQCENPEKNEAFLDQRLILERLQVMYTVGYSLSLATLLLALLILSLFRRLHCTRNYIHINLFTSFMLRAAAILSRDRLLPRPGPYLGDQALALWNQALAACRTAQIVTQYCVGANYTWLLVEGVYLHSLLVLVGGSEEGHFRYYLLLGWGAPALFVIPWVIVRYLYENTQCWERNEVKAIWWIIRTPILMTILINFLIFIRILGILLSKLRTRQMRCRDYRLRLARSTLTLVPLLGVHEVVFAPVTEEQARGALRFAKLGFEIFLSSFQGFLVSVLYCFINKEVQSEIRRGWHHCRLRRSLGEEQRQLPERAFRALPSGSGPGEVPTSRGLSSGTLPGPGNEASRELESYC
Procedure: as §1, §2, §3

RIN-m5F cells = assay type: cell-based, rat; settings: for Rel. A (Relative Activity) on RIN-m5F: relative to GLP-1(7-37)
Procedure: This experiment measured the cAMP level produced by the compound on RIN-mF cells.
Frozen […] cells were placed in a 37° C. constant temperature water bath for rapid thawing and recovery. The cell solution was transferred to 10 ml of HBSS for resuspension, and centrifuged at 1000 rpm for 5 minutes at room temperature.
as §4, with “to each wells after drug” for “to each well after drug”

Human GLP-1R, sequence (P43220 24-463): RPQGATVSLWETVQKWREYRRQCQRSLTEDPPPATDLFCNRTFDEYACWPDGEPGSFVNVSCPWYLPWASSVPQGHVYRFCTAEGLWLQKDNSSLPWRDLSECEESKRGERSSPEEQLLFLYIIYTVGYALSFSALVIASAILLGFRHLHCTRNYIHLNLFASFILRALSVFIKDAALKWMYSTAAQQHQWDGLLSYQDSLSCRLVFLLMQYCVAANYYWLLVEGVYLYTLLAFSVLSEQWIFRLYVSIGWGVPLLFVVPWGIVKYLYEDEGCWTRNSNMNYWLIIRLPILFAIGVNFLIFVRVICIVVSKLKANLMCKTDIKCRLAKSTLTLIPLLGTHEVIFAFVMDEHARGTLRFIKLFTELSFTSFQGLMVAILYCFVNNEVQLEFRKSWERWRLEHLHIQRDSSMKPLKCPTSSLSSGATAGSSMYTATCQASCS
T1 sequence (P47871 26-477): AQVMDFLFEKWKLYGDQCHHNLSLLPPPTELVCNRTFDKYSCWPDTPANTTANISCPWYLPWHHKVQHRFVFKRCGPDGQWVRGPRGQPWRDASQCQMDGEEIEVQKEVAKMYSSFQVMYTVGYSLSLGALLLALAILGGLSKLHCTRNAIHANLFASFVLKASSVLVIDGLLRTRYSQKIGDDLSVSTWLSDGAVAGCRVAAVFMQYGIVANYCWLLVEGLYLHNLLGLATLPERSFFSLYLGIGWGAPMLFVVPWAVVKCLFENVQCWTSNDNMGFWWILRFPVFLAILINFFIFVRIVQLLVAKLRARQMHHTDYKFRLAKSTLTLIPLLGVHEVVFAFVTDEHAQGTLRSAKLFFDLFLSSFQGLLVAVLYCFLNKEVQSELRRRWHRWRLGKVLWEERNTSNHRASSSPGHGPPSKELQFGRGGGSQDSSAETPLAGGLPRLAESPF

Compound: CC[C@H](C)[C@H](NC(=O)[C@H](Cc1ccccc1)NC(=O)[C@H](C)NC(=O)C(C)(C)NC(=O)[C@H](CCC(N)=O)NC(=O)[C@H](C)NC(=O)[C@H](CCCCNC(=O)COCCOCCNC(=O)COCCOCCNC(=O)CC[C@H](NC(=O)CCCCCCCCCCCCCCCCCCC(=O)O)C(=O)O)NC(=O)[C@H](CCCCN)NC(=O)[C@H](CC(=O)O)NC(=O)[C@H](CC(C)C)NC(=O)[C@](C)(CC(C)C)NC(=O)[C@@H](NC(=O)[C@H](CO)NC(=O)[C@H](Cc1ccc(O)cc1)NC(=O)[C@H](CC(=O)O)NC(=O)[C@H](CO)NC(=O)[C@@H](NC(=O)[C@](C)(Cc1ccccc1)NC(=O)[C@@H](NC(=O)CNC(=O)[C@H](CCC(N)=O)NC(=O)C(C)(C)NC(=O)[C@@H](N)Cc1ccc(O)cc1)[C@@H](C)O)[C@@H](C)O)[C@@H](C)CC)C(=O)N[C@@H](CCC(=O)O)C(=O)N[C@@H](Cc1ccc(O)cc1)C(=O)N[C@@H](CC(C)C)C(=O)N[C@@H](CC(C)C)C(=O)N[C@@H](CCC(=O)O)C(=O)N[C@H](C(=O)N[C@@H](Cc1c[nH]cn1)C(=O)N1CCC[C@H]1C(=O)N[C@@H](CO)C(=O)N[C@@H](CO)C(=O)NCC(=O)N[C@@H](C)C(=O)N1CCC[C@H]1C(=O)N1CCC[C@H]1C(=O)NC1(C(=O)N[C@@H](CO)C(N)=O)CC1)[C@@H](C)O [Compound 2] (H-Y[Aib]QGT[αMeF]TSDYSI[αMeL]LDKK([AEEA-AEEA-γGlu-C20 diacid])AQ[Aib]AFIEYLLETHPSSGAPP[Ac3c]S-NH2; N-terminus assumed)
- Human GCG R Rel. A (Relative Activity) (Human GCG R): 24.57%
- EC50 (3T3-L1 adipocytes): 2.49 nM
- Rel. A (Relative Activity) on 3T3-L1 adipocyte (3T3-L1 adipocytes): 152.63%
- Human GLP-1R Rel. A (Relative Activity) (Human GLP-1R): 169.23%
- EC50 (Human GLP-1R): 0.026 nM
- EC50 [1]: 2.37 nM
- Rel. A (Relative Activity) on human primary liver cells [1]: 164.32%
- Human GIP R Rel. A (Relative Activity) (Human GIP R): 724.00%
- EC50 (Human GIP R): 0.025 nM
- EC50 (RIN-m5F cells): 0.624 nM
- Rel. A (Relative Activity) on RIN-m5F (RIN-m5F cells): 165.38%

Compound: CC[C@H](C)[C@H](NC(=O)[C@H](Cc1ccccc1)NC(=O)[C@H](C)NC(=O)C(C)(C)NC(=O)[C@H](CCC(N)=O)NC(=O)[C@H](C)NC(=O)[C@H](CCCCNC(=O)COCCOCCNC(=O)COCCOCCNC(=O)CC[C@H](NC(=O)CCCCCCCCCCCCCCCCCCC(=O)O)C(=O)O)NC(=O)[C@H](CCCCN)NC(=O)[C@H](CC(=O)O)NC(=O)[C@H](CC(C)C)NC(=O)[C@](C)(CC(C)C)NC(=O)[C@@H](NC(=O)[C@H](CO)NC(=O)[C@H](Cc1ccc(O)cc1)NC(=O)[C@H](CC(=O)O)NC(=O)[C@H](CO)NC(=O)[C@@H](NC(=O)[C@](C)(Cc1ccccc1F)NC(=O)[C@@H](NC(=O)CNC(=O)[C@H](Cc1c[nH]cn1)NC(=O)C(C)(C)NC(=O)[C@@H](N)Cc1ccc(O)cc1)[C@@H](C)O)[C@@H](C)O)[C@@H](C)CC)C(=O)N[C@@H](CCC(=O)O)C(=O)N[C@@H](Cc1ccc(O)cc1)C(=O)N[C@@H](CC(C)C)C(=O)N[C@@H](CC(C)C)C(=O)N[C@@H](CCC(=O)O)C(=O)NC(C)(C)C(=O)N[C@@H](Cc1c[nH]cn1)C(=O)N1CCC[C@H]1C(=O)N[C@@H](CO)C(=O)N[C@@H](CO)C(=O)NCC(=O)N[C@@H](CCC(N)=O)C(=O)N1CCC[C@H]1C(=O)N1CCC[C@H]1C(=O)N1CCC[C@H]1C(=O)N[C@@H](CO)C(N)=O [Compound 6] (H-Y[Aib]HGT[αMePhe(2-F)]TSDYSI[αMeL]LDKK([AEEA-AEEA-γGlu-C20 diacid])AQ[Aib]AFIEYLLE[Aib]HPSSGQPPPS-NH2; N-terminus assumed)
- Human GCG R Rel. A (Relative Activity) (Human GCG R): 98.28%
- EC50 (Human GCG R; stable transfected cell cAMP activity, at least 3 independent tests): 0.058 nM
- EC50 (3T3-L1 adipocytes): 1.01 nM
- Rel. A (Relative Activity) on 3T3-L1 adipocyte (3T3-L1 adipocytes): 374.58%
- Human GLP-1R Rel. A (Relative Activity) (Human GLP-1R): 220.00%
- EC50 (Human GLP-1R): 0.02 nM
- EC50 [1]: 0.299 nM
- Rel. A (Relative Activity) on human primary liver cells [1]: 1301.34%
- Human GIP R Rel. A (Relative Activity) (Human GIP R): 1292.86%
- EC50 (Human GIP R): 0.014 nM
- EC50 (RIN-m5F cells): 1.59 nM
- Rel. A (Relative Activity) on RIN-m5F (RIN-m5F cells): 64.74%

Compound: CC[C@H](C)[C@H](NC(=O)[C@H](Cc1ccccc1)NC(=O)[C@H](C)NC(=O)C(C)(C)NC(=O)[C@H](CCC(N)=O)NC(=O)[C@H](C)NC(=O)[C@H](CCCCNC(=O)COCCOCCNC(=O)CC[C@H](NC(=O)CCCCCCCCCCCCCCCCCCC(=O)O)C(=O)O)NC(=O)[C@H](CCCCN)NC(=O)[C@H](CC(=O)O)NC(=O)[C@H](CC(C)C)NC(=O)[C@](C)(CC(C)C)NC(=O)[C@@H](NC(=O)[C@H](CO)NC(=O)[C@H](Cc1ccc(O)cc1)NC(=O)[C@H](CC(=O)O)NC(=O)[C@H](CO)NC(=O)[C@@H](NC(=O)[C@H](Cc1ccccc1)NC(=O)[C@@H](NC(=O)CNC(=O)[C@H](CCC(N)=O)NC(=O)C(C)(C)NC(=O)[C@@H](N)Cc1ccc(O)cc1)[C@@H](C)O)[C@@H](C)O)[C@@H](C)CC)C(=O)N[C@@H](CCC(=O)O)C(=O)N[C@@H](Cc1ccc(O)cc1)C(=O)N[C@@H](CC(C)C)C(=O)N[C@@H](CC(C)C)C(=O)N[C@@H](CCC(=O)O)C(=O)NC(C)(C)C(=O)NCC(=O)N1CCC[C@H]1C(=O)N[C@@H](CO)C(=O)N[C@@H](CO)C(=O)NCC(=O)N[C@@H](C)C(=O)N1CCC[C@H]1C(=O)N1CCC[C@H]1C(=O)N1CCC[C@H]1C(=O)N[C@@H](CO)C(N)=O [Compound 45] (H-Y[Aib]QGTFTSDYSI[αMeL]LDKK([AEEA-γGlu-C20 diacid])AQ[Aib]AFIEYLLE[Aib]GPSSGAPPPS-NH2)
- EC50 (3T3-L1 adipocytes): 8.11 nM
- Rel. A (Relative Activity) on 3T3-L1 adipocyte (3T3-L1 adipocytes): 46.89%

Compound: GLP-1(7-37) [reference compound]
- Human GLP-1R Rel. A (Relative Activity) (Human GLP-1R): 100.00%
- EC50 (RIN-m5F cells; cAMP, at least 3 independent tests, read-out: EC50 on RIN-m5F rat pancreatic islet tumor cells): 1.03 nM
- Rel. A (Relative Activity) on RIN-m5F (RIN-m5F cells): 100.00%

— US20250129135A1, “Multi-Agonist and Use Thereof” (priority 2021, published 2025)
